“And” between values parts separate entries of the source, which are not always exact repeats. Equal values may be shown once. “Also recorded” adds a separate entry of the source. No end group written: not given here.

The values below come from patent US20150306182A1, “FAT LOSS COMPOSITION” (priority 2012, published 2015).

For data set [1] the following is noted: minimal dose of 40 μg; cited from earlier work.
The nature of data set [2]: Four week trial of amino acids 176-191 of human growth hormone alone (Example 2). The data set is classed as in vivo. The following applies: for Bowel Habits (per day): one value per test subject. An excerpt:
Ten subjects were given a daily subcutaneous dose of 2 International Units (IU) of amino acids 176-191 of human growth hormone for a four week trial period.

The conditions of data set [3]: cited from earlier work.
The conditions of data set [4]: acute administration in humans, case reports; cited from earlier work.
For a further data set, the target named is T1, hGH receptor (Homo sapiens, UniProt P10912).
T1 sequence (P10912 19-638): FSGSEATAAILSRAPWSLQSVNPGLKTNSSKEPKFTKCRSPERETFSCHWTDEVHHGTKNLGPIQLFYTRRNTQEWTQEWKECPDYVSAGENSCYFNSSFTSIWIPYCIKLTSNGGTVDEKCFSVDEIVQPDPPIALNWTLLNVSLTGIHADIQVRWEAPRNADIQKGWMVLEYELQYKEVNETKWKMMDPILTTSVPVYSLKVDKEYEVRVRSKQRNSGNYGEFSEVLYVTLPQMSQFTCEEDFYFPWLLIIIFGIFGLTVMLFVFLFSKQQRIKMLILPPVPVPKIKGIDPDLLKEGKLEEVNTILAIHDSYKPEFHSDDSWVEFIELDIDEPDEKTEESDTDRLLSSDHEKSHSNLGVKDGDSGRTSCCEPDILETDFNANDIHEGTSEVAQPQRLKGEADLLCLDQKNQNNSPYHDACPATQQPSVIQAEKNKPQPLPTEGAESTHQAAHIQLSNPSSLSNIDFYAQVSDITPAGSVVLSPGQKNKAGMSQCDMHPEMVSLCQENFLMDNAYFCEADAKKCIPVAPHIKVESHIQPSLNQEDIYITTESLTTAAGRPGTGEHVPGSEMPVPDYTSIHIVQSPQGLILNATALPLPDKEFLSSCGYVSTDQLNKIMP
The following applies: unlike Human Growth Hormone; cited from earlier work.

The test system of a further data set is cell proliferation. The following applies: unlike Human Growth Hormone; cited from earlier work.
For a further data set, the system named is ob/ob mice. The following applies: cited from earlier work.
Data set [5] relates to isolated adipose tissue from obese rodents. The following applies: cited from earlier work.
Data set [6] concerns isolated adipose tissue from obese humans. The following applies: cited from earlier work.
In another data set the test system is adipose tissue. The following applies: cited from earlier work.
The nature of data set [7]: Cloprostenol sodium alone in male and female subjects (Example 1). The data set is classed as in vivo, human. As to the method:
Cloprostenol sodium was taken by eight male and two female subjects at a dosage of 120 micrograms for every 2501b (113 kg) body weight. The dosage was calculated pro rata based on the weight of the subject involved.
With the female subjects the process was identical. However, the dosage was reduced to 15 μg per shot for menstrual reasons.

[8] abbreviates: ten subjects, daily subcutaneous 2 IU, four weeks.

In the case of `O=C(O)CCC/C=C\C[C@@H]1C(/C=C/[C@@H](O)COc2cccc(Cl)c2)[C@H](O)C[C@@H]1O` (stereo partly drawn) [Cloprostenol, (5Z)-7-[(1R,3R,5S)-2-[(E,3R)-4-(3-chlorophenoxy)-3-hydroxybut-1-enyl]-3,5-dihydroxycyclopentyl]hept-5-enoic acid], the “Bowel evacuation after dosing” value in data set [1] was “within ten minutes users will have to evacuate their bowels”.
For “YLRIVQCRSVEGSCGF (cysteine pairing not given here) [HGH fragment 176-191, freely available commercially]”, the “Body Fat” value in [2] (Test subject 1, Week 4, start 17%) came to 15%; in [2] (Test subject 2, Week 4, start 31%) it was 28%; in data set [2] (Test subject 3, Week 4, start 18%), 15%; in data set [2] (Test subject 4, Week 4, start 10%), 10%; in data set [2] (Test subject 5, Week 4, start 25%), 24%; in data set [2] (Test subject 6, Week 4, start 32%), 30%. The “Body Fat” value was determined as 28% in data set [2] (Test subject 7, Week 4, start 30%); 30% in data set [2] (Test subject 8, Week 4, start 34%); 10% in data set [2] (Test subject 9, Week 4, start 10%); 18% in data set [2] (Test subject 10, Week 4, start 21%). For the same compound, the Weight entry in [2] (Test subject 1, Week 4, start 98 kg) is on record as “(96 kg)”; in data set [2] (Test subject 1, Week 4, start 217 lb) it was 212 lb; in data set [2] (Test subject 2, Week 4, start 92 kg), “(89 kg)”; in [2] (Test subject 2, Week 4, start 203 lb), 196 lb; in data set [2] (Test subject 3, Week 4, start 108 kg), “(106 kg)”; in data set [2] (Test subject 3, Week 4, start 238 lb) it was 233 lb. For the same compound, the Weight result in data set [2] (Test subject 4, Week 4, start 92 kg) is “(92 kg)”; in [2] (Test subject 4, Week 4, start 203 lb), 203 lb; in data set [2] (Test subject 5, Week 4, start 105 kg), “(103 kg)”; in data set [2] (Test subject 5, Week 4, start 231 lb), 226 lb; in [2] (Test subject 6, Week 4, start 68 kg), “(67 kg)”; in data set [2] (Test subject 6, Week 4, start 150 lb) it was 147 lb. For the same compound, the Weight result was “(76 kg)” in [2] (Test subject 7, Week 4, start 79 kg); 168 lb in data set [2] (Test subject 7, Week 4, start 173 lb); “(103 kg)” in [2] (Test subject 8, Week 4, start 108 kg); 226 lb in data set [2] (Test subject 8, Week 4, start 238 lb); “(79 kg)” in data set [2] (Test subject 9, Week 4, start 79 kg); 175 lb in data set [2] (Test subject 9, Week 4, start 175 lb). Besides, the Weight entry in data set [2] (Test subject 10, Week 4, start 86 kg) is “(83 kg)”; in data set [2] (Test subject 10, Week 4, start 189 lb) it was 182 lb. Moreover, the “Bowel Habits (per day)” value is 2 per day and 1 per day in [2] (Week 1, daily subcutaneous 2 IU); 2 per day and 1 per day in data set [2] (Week 2, daily subcutaneous 2 IU); 1 per day and 2 per day in data set [2] (Week 3, daily subcutaneous 2 IU); 1 per day and 2 per day in data set [2] (Week 4, daily subcutaneous 2 IU). In data set [2] (setting [8]), the Completion of trial result is “All subjects completed the four week trial”. For the same compound, the “Reduction in body fat and weight loss” value in data set [2] (setting [8]) is given as “no real reduction in body fat or meaningful weight loss”. Further, in [3] (clinical trial and experimental users), the Side effects result is “No side effects have been reported”. Also, in data set [3] (humans), the “Stimulation of the metabolism of body fat” value was “highly successful at stimulating the metabolism of body fat in humans”. Also, in data set [3] (in three months, oral dosing), the “Average overall weight loss (fat)” value is reported as 3 kg. Moreover, in [3] (lowest of 6 doses, oral, 3 months), the “Most effective daily dose” value is 1 mg. Also, in data set [3] (three months, more than subjects not taking the peptide), the “Weight loss relative to test subjects not taking the peptide” value is given as 300%.
Turning to `O=[N+]([O-])c1ccc(O)c([N+](=O)[O-])c1` [DNP, 2,4-Dinitrophenol], the Lethal acute administration in [4] was 20 to 50 mg/kg.
As for “HGH Fragment 177-191: Human growth hormone fragment of the cited studies; shares amino acid sequence with Human Growth Hormone (LRIVQCRSVEGSCGF; ends and bridges not checked; cysteine pairing not given here; UniProt P01241 203-217, looked up, fragment)”, the “Competition for the hGH receptor” value with hGH receptor is listed as “does not compete for the hGH receptor”. The “Induction of cell proliferation” value in the data set on cell proliferation is given as “nor does it induce cell proliferation”. In addition, the “Energy expenditure, glucose and fat oxidation” value in the data set on ob/ob mice is “increasing energy expenditure and glucose and fat oxidation”. Besides, the “In vitro lipogenic activity” value in data set [5] and in data set [6] was “decreased lipogenic activity” throughout. The “In vitro lipolytic activity” value in data set [5] and in [6] was “increased in vitro lipolytic activity” each time. The “Lipolytic activity in adipose tissue” value in the data set on adipose tissue (dosage of 500 μg) is “increase lipolytic activity in adipose tissue”. For the same compound, the “Impact on insulin sensitivity” value in the data set on adipose tissue (in vivo) is listed as “no negative impact on insulin sensitivity”.
For the compound `O=C(O)CCC/C=C\CC1C(O)CC(O)C1/C=C/C(O)COc1cccc(Cl)c1` (centres unmarked) [Cloprostenol sodium, cloprostenol sodium], the “Willingness to continue use” value in [7] (all recipients) is listed as “None of the recipients wished to continue to use this product for more than three days”. Moreover, in [7] (females, 15 μg per shot), the “Side effects and willingness to continue in females” value is listed as “No female subjects wished to continue using this product due to severe stomach cramps”. Moreover, the “Side effects in males” value in data set [7] (males, shots of 30 μg at a time) was “very severe stomach cramps and extensive bowel movements”. The “Comments (stopping of use)” value in data set [7] (same dosing, one comment per test subject) was “Stopped after 2 days; also recorded: Stopped as cramp and pain; also recorded: Stopped after 1st day; also recorded: Stopped after 3 days”.
